≈ marks a conversion by molar mass, not a printed value. Read-outs that look alike come from different tables or passages of the source. Blank lines part the entries; values can stand above or below the compound they belong to.
What was measured:
RS4;11 = experiment: Efficacy in RS4;11 xenograft model in mice; assay type: in vivo; details: day 21, 20% HP-β-cyclodextrin solution
Description: The in vivo therapeutic effect of Compound A formulated in a solution comprising 20% of a HP-β-cyclodextrin w/v, was determined in the RS4;11 model after intravenous administration.
RS4;11 cell line, obtained from ATCC, were subcutaneously injected into female SCID mice, provided by Charles River. When tumors reached the appropriate tumor volume, mice were randomized using Easy stat software. Compound A (15 mg/kg or 40 mg/kg expressed as free base) was injected i.v. once a week over two weeks.
In a 100 mL flask, introduce 20 g of Cavitron™ W7HP5 and add around 75 mL of a solution water/0.9% NaCl (70/30, v/v). Stir for 15 minutes at room temperature. Then, make up the solution to a volume of 100 mL by adding the previous solution water/0.9% NaCl, while maintaining magnetic stirring. Weigh the necessary amount of ‘Compound A, H2SO4’ and dissolve it with the previous 20% w/v Cavitron™ W7H5 solution. Heat the whole at 60° C. under vigorous magnetic stirring until solubilisation of the components of the mixture is complete. Measure the pH of the solution obtained. […]
Mice were monitored for tumor development and body weight three times a week and tumor size was measured using electronic calipers. […] The last day with all control animals still present in the study, tumor growth inhibition was calculated using the formula: […]
wherein ‘DTV (Delta Tumor Volume) at Dx’ is calculated as follows: […]

[1] = pH, appearance and precipitation pH of solutions diluted in 250 mL of glucose 5% solution (G5); assay type: physicochemical; details: for pH: hydrogen sulfate salt in Cavitron W7H5; for Precipitation pH (by light obscuration technique) / Precipitation pH (by visual observation): pH increased with NaOH 0.01N
Description: The Compound A used is in the form of a hydrogen sulfate salt. Invisible particulate contamination of the solutions was also controlled by light obscuration technique.
A mother solution containing a dose of 200 mg/mL of Cavitron™ W7H5 and 20 mg/mL of Compound A (expressed for the free base) is prepared by dissolving a lyophilisate as described in Example 5 in the necessary amount of water. The solution so obtained is then diluted by means of glucose 5% solution (G5).
The pH of the solutions obtained is measured and the appearance of the solutions is observed. The pH is increased using NaOH 0.01N solution until a precipitation is observed.

[2] = Solubility test of Compound A, H2SO4 in a HP-β-cyclodextrin as a function of the pH; assay type: physicochemical; details: for solubility at 24 h: aqueous HP-β-cyclodextrin (Cavitron W7HP5) solution, aqueous with cosolvent or surfactant or cyclodextrin, thermodynamic from solid, read-out: Solubility after 24 h
Description: The solubility of ‘Compound A, H2SO4’ was studied in the presence of a HP-β-cyclodextrin as a function of the pH.
10 g of the cyclodextrin studied (Cavitron™ W7HP5) are placed in a 50 mL graduated flask. 40 mL of water are then added. The whole is placed under magnetic stirring. The volume is then made up with water to 50 mL.
Approximately 856.7 mg of ‘Compound A, H2SO4’ are weighed. 30 mL of the medium containing the carrier to be tested, that is to say Cavitron™ W7HP5, are then added. The whole is placed under magnetic stirring for 24 hours. The suspension so obtained is passed through a 0.2 μm filter (PALL—PES membrane—diameter 25 mm) before being analysed by HPLC.
In other tests, the pH of the solution is then modified by means of 0.1 N NaOH solution until values of 4 and 8.8 are reached, before the analysis by HPLC chromatography is carried out.

[3] = 12 mg of Compound A in 250 mL of G5
[4] = 25 mg of Compound A in 250 mL of G5
[5] = 50 mg of Compound A in 250 mL of G5
[6] = 100 mg of Compound A in 250 mL of G5
[7] = 250 mg of Compound A in 250 mL of G5
[8] = 500 mg of Compound A in 250 mL of G5
[9] = 1000 mg of Compound A in 250 mL of G5

Appearance of the solution after 15 min [1, 3]: clear
pH [1, 3]: 3.7-4.310
Precipitation pH (by light obscuration technique) [1, 3]: 5.4
Precipitation pH (by visual observation) [1, 3]: 8.609
Appearance of the solution after 15 min [1, 4]: clear
pH [1, 4]: 3.9-4.240
Precipitation pH (by light obscuration technique) [1, 4]: 4.8
Precipitation pH (by visual observation) [1, 4]: 5.220
Appearance of the solution after 15 min [1, 5]: clear
pH [1, 5]: 3.8-4.158
Precipitation pH (by light obscuration technique) [1, 5]: 4.5
Precipitation pH (by visual observation) [1, 5]: 5.143
Appearance of the solution after 15 min [1, 6]: clear
pH [1, 6]: 3.8-4.033
Precipitation pH (by light obscuration technique) [1, 6]: 4.3
Precipitation pH (by visual observation) [1, 6]: 4.872
Appearance of the solution after 15 min [1, 7]: clear
pH [1, 7]: 3.7-3.809
Precipitation pH (by light obscuration technique) [1, 7]: 4.1
Precipitation pH (by visual observation) [1, 7]: 4.388
Appearance of the solution after 15 min [1, 8]: clear
pH [1, 8]: 3.5-3.613
Precipitation pH (by light obscuration technique) [1, 8]: 4.0
Precipitation pH (by visual observation) [1, 8]: 4.378
Appearance of the solution after 15 min [1, 9]: clear
pH [1, 9]: 3.3-3.401
Precipitation pH (by light obscuration technique) [1, 9]: 4.0
Precipitation pH (by visual observation) [1, 9]: 4.254
precipitation when diluted in G5 solution ([1]; concentrations between 12 and 1000 mg/250 mL of G5 solution, solubilised by Cavitron W7H5 solution): do not precipitate
Compound: Cc1c(N(C(=O)c2cc(-c3cc(Cl)ccc3C(=O)N3Cc4ccccc4C[C@H]3CN3CCOCC3)n(C)c2C)c2ccc(O)cc2)cc(C#N)n1C [Compound A, 5-(5-chloro-2-{[(3S)-3-(morpholin-4-ylmethyl)-3,4-dihydroisoquinolin-2(1H)-yl]carbonyl}phenyl)-N-(5-cyano-1,2-dimethyl-1H-pyrrol-3-yl)-N-(4-hydroxyphenyl)-1,2-dimethyl-1H-pyrrole-3-carboxamide]
tumor growth inhibition (RS4;11; 15 mg/kg i.v. once a week for 2 weeks): 57.83%
tumor growth inhibition (RS4;11; 40 mg/kg i.v. once a week for 2 weeks): 75.52%

pH from which a precipitate is visually observed ([2]; Cavitron W7HP5 200 mg/mL, pH raised with 0.1 N NaOH): 3.2
solubility at 24 h ([2]; Cavitron W7HP5 200 mg/mL + 0.1N NaOH, pH 4.01): 17.1 mg/mL
solubility at 24 h ([2]; Cavitron W7HP5 200 mg/mL + 0.1N NaOH, pH 8.8): 0.99 mg/mL
solubility at 24 h ([2]; Cavitron W7HP5 200 mg/mL, pH 1.86 (without adjustment)): 21.6 mg/mL (≈ 30.1 mM)
Compound: Cc1c(N(C(=O)c2cc(-c3cc(Cl)ccc3C(=O)N3Cc4ccccc4C[C@H]3CN3CCOCC3)n(C)c2C)c2ccc(O)cc2)cc(C#N)n1C [Compound A, H2SO4, 5-(5-chloro-2-{[(3S)-3-(morpholin-4-ylmethyl)-3,4-dihydroisoquinolin-2(1H)-yl]carbonyl}phenyl)-N-(5-cyano-1,2-dimethyl-1H-pyrrol-3-yl)-N-(4-hydroxyphenyl)-1,2-dimethyl-1H-pyrrole-3-carboxamide]

— patent publication US20210353633A1, “CYCLODEXTRIN-BASED FORMULATION OF A BCL-2 INHIBITOR” (LES LABORATOIRES SERVIER, priority 2018, published 2021)
